logP data for 17 compounds are collected here from the OPERA property sets (Mansouri et al. 2018).

Usually logP stands for a log measure of how a compound divides between an organic and an aqueous phase. Lower therefore signals lower lipophilicity.

On to `c1ccc2c(c1)OCCOCCOCCOCCOCCOCCOCCOc1ccccc1OCCOCCOCCOCCOCCOCCOCCO2`, for which the log partition coefficient (logP) turned out to be 0.52.

In turn, `c1ccc2c(c1)OCCOCCOCCOCCOCCOCCOc1ccccc1OCCOCCOCCO2` yielded a lipophilicity (logP) of 1.45.

On to `COCCOCCOc1ccc(OCCOCCOC)cc1`, for which the logP is 0.76.

`c1ccc2c(c1)OCCOCCOc1ccccc1OCCOCCO2` showed a logP of 2.2.

`COCCOCCOc1cccc(OCCOCCOC)c1`: the lipophilicity (logP) was found to be 0.86.

In turn, `c1ccc2c(c1)OCCOCCOCCOCCOc1ccccc1OCCOCCOCCOCCO2` came in with a logP of 1.8.

As for `COCCOCCOCCOc1ccccc1OCCOCCOCCOC`, the lipophilicity (logP) came to 0.38.

Regarding `c1ccc2c(c1)OCCOCCOCCOCCOCCOCCOCCOc1ccccc1OCCO2`, the logP was found to be 1.82.

Take `c1ccc2c(c1)OCCOCCOCCOCCOCCOCCOCCO2`: the lipophilicity (logP) amounted to 0.45.

Compound `c1ccc2c(c1)OCCOCCOCCOc1ccccc1OCCOCCOCCO2` displayed a logP of 2.11.

In turn, `COCCOCCOc1ccccc1OCCOCCOC` gave a logP of 0.76.

`c1ccc2c(c1)OCCOCCOCCOCCOCCO2` gave a logP of 0.58.

Take `c1ccc2c(c1)OCCOCCOCCOCCOCCOCCOCCOCCOCCO2`: the lipophilicity (logP) stood at 0.03.

The compound `c1ccc2c(c1)OCCOCCOCCOCCO2` yielded a logP of 0.91.

In the case of `c1ccc2c(c1)OCCOCCOCCOCCOCCOCCO2`, the log partition coefficient (logP) worked out at 0.57.

Consider `c1ccc2c(c1)OCCOCCOCCOCCOCCOCCOc1ccccc1OCCO2`, for which the logP was determined as 1.63.

`c1ccc2c(c1)OCCOCCOCCOCCOCCOCCOCCOCCOCCOCCO2` yielded a log partition coefficient (logP) of -0.09.
